{
  "source": "patent US9549942B2",
  "about": "“Composition for preventing or treating degenerative brain diseases including compound downregulating expression of BACE1 proteins” (RESEARCH & BUSINESS FOUNDATION SUNGKYUNKWAN UNIVERSITY, priority 2013, dated 2017)",
  "key": {"[1]": {"test_system": "BACE1 proteins", "assay": "Amount of expression of BACE1 proteins in brain nerve cells (Western blot)", "format": "cell-based, human", "conditions": "SH-SY5Y cells, treated 24 hours at 0.625, 1.25, 2.5, 5 and 10 μM, actin control", "method": "As brain nerve cells, human neuroblastoma cells SH-SY5Y were used. […] The SH-SY5Y cells were plated at 5×10^5 cells/well into a 6-well plate. […] Then, the amount of expression of BACE1 proteins was determined by Western blot. Actin was used throughout as a control."}, "[2]": {"test_system": "APP CTFs (C83 and C99)", "assay": "Generation of APP CTFs (C83 and C99) under oxidative stress conditions of brain nerve cells (Western blot)", "format": "cell-based, human", "conditions": "SH-SY5Y cells pretreated 24 hours at 5 and 10 μM, then HNE", "method": "In order to determine an influence of chlorhexidine and thioguanosine of the present disclosure on APP CTFs under oxidative stress conditions of brain nerve cells, the following experiment was performed. Brain nerve cells, SH-SY5Y cells, were pretreated with chlorhexidine and thioguanosine at 5 μM and 10 μM for 24 hours. Then, an oxidative stress substance HNE (4-hydroxynonenal) was used as the treatment, and the generation of APP CTFs (C83 and C99) was determined by Western blot. Under oxidative stress conditions of brain nerve cells treated in accordance with the present disclosure, changes in the generation of APP CTFs are shown in FIGS. 11 and 12."}, "[3]": {"test_system": "3×Tg-AD mice", "assay": "Morris water maze test, learning ability, Alzheimer's dementia animal model", "format": "in vivo, mouse", "conditions": "25 mg/kg orally every day for 4 weeks, on the third and fourth days", "method": "(§1) As an Alzheimer's dementia animal model, 3×Tg-AD mice were used. The 3×Tg-AD mouse is a mouse having overexpressed presenilin, amyloid precursor protein (APP), and Tau genes, which are frequently found in Alzheimer's dementia. The 3×Tg-AD mouse is an animal model that is widely used for research on Alzheimer's dementia (Oddo S. et al, 2003, Neuron, 39, 409-421). 25 mg/kg of chlorhexidine was orally administered every day for 4 weeks; and 0.1 mg/kg and 0.5 mg/kg of thioguanosine were orally administered every day for 8 weeks to 6-month old 3×Tg-AD mice. A Morris water maze test was used to evaluate the effects of chlorhexidine and thioguanosine administration on the mice. […] In this configuration, a treated or control subject was placed into the water with its head towards a water tank wall surface, and a time was recorded for the length of time taken for finding the escape platform. […] After 15 minutes, the mouse was placed into the water again, a subsequent time taken for finding the escape platform was recorded, and a change in the learning ability was determined. This procedure was performed over four days, and the result of change in learning ability was measured. […]"}, "[4]": {"test_system": "3×Tg-AD mice", "assay": "Morris water maze, platform removed on fifth day (memory)", "format": "in vivo, mouse", "conditions": "25 mg/kg orally every day for 4 weeks, 60 seconds", "method": "as §1"}, "[5]": {"test_system": "Aβ40 and Aβ42", "assay": "Generation of Aβ40 and Aβ42 in brain, human amyloid β assay kits (ELISA)", "format": "in vivo", "conditions": "3×Tg-AD mouse brain, 25 mg/kg orally every day for 4 weeks", "method": "As an Alzheimer's dementia animal model, 3×Tg-AD mice were used. The 3×Tg-AD mouse is a mouse having overexpressed presenilin, amyloid precursor protein (APP), and Tau genes, which are frequently found in Alzheimer's dementia. The 3×Tg-AD mouse is an animal model that is widely used for research on Alzheimer's dementia (Oddo S. et al, 2003, Neuron, 39, 409-421). 25 mg/kg of chlorhexidine was orally administered every day for 4 weeks; and 0.1 mg/kg and 0.5 mg/kg of thioguanosine were orally administered every day for 8 weeks to 6-month old 3×Tg-AD mice. A Morris water maze test was used to evaluate the effects of chlorhexidine and thioguanosine administration on the mice.\nFrom the 3×Tg-AD mouse to which chlorhexidine was administered in Example 4a brain was extracted. A […] frozen section was prepared from the extracted brain using a microtome. Then, generation of Aβ was measured using immuno staining or a human amyloid 13 (1-40) assay kit (IBL) and a human amyloid β (1-42) assay kit (IBL). FIGS. 20 and 21 show the results."}, "[6]": {"test_system": "BACE1 promoter", "assay": "BACE1 promoter activity, BACE1 promoter-luciferase vector, Dual-Luciferase assay", "format": "cell-based", "conditions": "Homo sapiens; SH-SY5Y transfected with BACE1 promoter-luciferase vector, 10 μM for 24 hours; read-out: decrease of BACE1 promoter activity", "method": "A BACE1 promoter-luciferase vector was transfected to brain nerve cells (SH-SY5Y). […] A change in a BACE1 promoter activity was measured using a Dual-Luciferase assay kit."}},
  "data": [
    {"smiles": "[H]/N=C(\\N/C(=N/[H])NCCCCCCNC(=N)NC(=N)Nc1ccc(Cl)cc1)Nc1ccc(Cl)cc1", "note": "[chlorhexidine, N′,N′″″-hexane-1,6-diylbis[N-(4-chlorophenyl)(imidodicarbonimidic diamide)]]", "values": [
      {"measurement": "amount of expression of BACE1 proteins", "setting": "[1]", "value": "decreased at 5 μM and 10 μM"},
      {"measurement": "increase in CTFs due to oxidative stress", "setting": "[2]", "value": "decreased at 5 μM and 10 μM"},
      {"measurement": "learning ability for finding the platform (Morris water maze)", "setting": "[3]", "value": "faster learning ability for finding the platform than a control group"},
      {"measurement": "memory: time in target quadrant after platform removed", "setting": "[4]", "value": "spent the majority of time in the location in which the platform was formerly placed"},
      {"measurement": "generation of Aβ40", "setting": "[5]", "value": "decreased"},
      {"measurement": "generation of Aβ42", "setting": "[5]", "value": "decreased"},
      {"measurement": "inhibition at 10 µM", "setting": "[6]", "value": "≥ 50", "unit": "%"}
    ]}
  ]
}
